PubChem BioAssay (NCI)
Several values for one entry are separate records, joined by “and”; a condition that tells them apart may be missing. Equal values may be shown once.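 Exposure lasted 48 hours, with cells grown in 96-well plates and compounds tested at five concentrations. GI50 marks 50% less growth. At the TGI there is no net growth.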

Legend:
Experiment in all cases: growth of human tumour cells (NCI), 48 h
KM20L2 colon = tested on: KM20L2 colon
HOP-92 NSCLC = tested on: HOP-92 NSCLC
SW-620 colon = tested on: SW-620 colon
LOX IMVI melanoma = tested on: LOX IMVI melanoma
DMS 273 small cell lung = tested on: DMS 273 small cell lung
NCI-H226 lung = tested on: NCI-H226 lung
TK-10 renal = tested on: TK-10 renal
HCT-15 colon = tested on: HCT-15 colon
UO-31 renal = tested on: UO-31 renal
PC-3 prostate = tested on: PC-3 prostate

SMILES | TGI (KM20L2 colon) | TGI (HOP-92 NSCLC) | TGI (SW-620 colon) | TGI (LOX IMVI melanoma) | TGI (DMS 273 small cell lung) | TGI (NCI-H226 lung) | TGI (TK-10 renal) | TGI (HCT-15 colon) | TGI (UO-31 renal) | TGI (PC-3 prostate) | GI50 (PC-3 prostate) | GI50 (KM20L2 colon) | GI50 (HOP-92 NSCLC) | GI50 (SW-620 colon) | GI50 (LOX IMVI melanoma) | GI50 (DMS 273 small cell lung) | GI50 (NCI-H226 lung) | GI50 (TK-10 renal) | GI50 (HCT-15 colon) | GI50 (UO-31 renal)
Cc1ccc(NC(=O)/C(=N/NC(=O)CC#N)C2C(=O)N(c3ccccc3)N=C2N)cc1C (stereo unspecified) | > 100 µM | > 100 µM | > 100 µM | > 100 µM | > 100 µM | > 100 µM | > 100 µM | > 100 µM | > 100 µM |  |  |  |  |  |  |  |  |  |  | 
O=C1CC(c2ccccc2)NCN1 (stereo unspecified) | > 100 µM |  | > 100 µM | > 100 µM | > 100 µM | > 100 µM | > 100 µM | > 100 µM | > 100 µM |  |  |  |  |  |  |  |  |  |  | 
Nc1nc(F)nc2c1ncn2C1OC(COP(=O)(O)O)C(O)C1O (stereo unspecified) | > 1250 µM | 71.8 µM | 675 µM | 334 µM | 821 µM | 599 µM | 773 µM | 1080 µM | 76.4 µM | 322 µM |  |  |  |  |  |  |  |  |  | 
N#CC(c1ccc(Cl)cc1)c1cccc(Cl)n1 (stereo unspecified) | > 100 µM | 74.8 µM | > 100 µM |  |  | > 100 µM | > 100 µM |  | > 100 µM |  |  |  |  |  |  |  |  |  |  | 
O[C@H]1[C@H]2[C@H](O)CCCN2C[C@H]1O | > 100 µM | > 100 µM | > 100 µM | > 100 µM | > 100 µM | > 100 µM | > 100 µM | > 100 µM | > 100 µM |  |  |  |  |  |  |  |  |  |  | 
NC1=NN(c2ccccc2)C(=O)C1C(=O)C(=O)Nc1cccc(C(F)(F)F)c1 (stereo unspecified) | > 100 µM | > 100 µM | > 100 µM | > 100 µM | > 100 µM | > 100 µM | > 100 µM | > 100 µM | > 100 µM |  |  |  |  |  |  |  |  |  |  | 
CC1=Cc2cc3[n-]c(cc4nc(cc5[n-]c(cc1n2)c(C)c5CCC(=O)O)C(CCC(=O)O)=C4C)cc3C.[Cu+2] | > 100 µM | > 1 µM and 34.3 µM | > 79.6 µM | > 65.3 µM | > 55.9 µM | > 87.2 µM | > 1 µM and 38.3 µM | > 86.7 µM | > 92.7 µM | 29.5 µM | 12.9 µM | > 100 µM | > 1 µM and 13.6 µM | > 47.7 µM | 28.1 µM | > 39.8 µM | > 1 µM and 62 µM | > 1 µM and 17.6 µM | > 1 µM and 52.7 µM | > 1 µM and 38.3 µM
C/C(=N\[N+](C)(C)C)C(c1ccccc1)C1(c2ccccc2)C(c2ccccc2)=C1c1ccccc1 (stereo unspecified) | > 100 µM | > 100 µM | > 100 µM | > 100 µM | > 100 µM | 93.4 µM | > 100 µM | > 100 µM | > 100 µM |  |  |  |  |  |  |  |  |  |  | 
CC(=O)Oc1cc2c(=O)oc3c(OC(C)=O)c(OC(C)=O)c(OC(C)=O)c4c(=O)oc(c1OC(C)=O)c2c34 | > 100 µM | 96.9 µM | > 100 µM | 32.6 µM | > 100 µM | 99 µM | > 100 µM | > 100 µM | > 100 µM |  |  |  |  |  |  |  |  |  |  | 
COC1=CC(C)C2C[C@H]3O[C@H](O)C[C@H]4C(C)C(=O)C(O)C([C@@]2(C)C1=O)[C@@]34C (stereo partly specified) |  | > 100 µM | > 100 µM | > 100 µM | > 100 µM | > 100 µM | > 100 µM | > 100 µM | > 100 µM |  |  |  |  |  |  |  |  |  |  | 
O=C(/C=C\c1cccc2ccccc12)c1ccc(Br)cc1 | 32.2 µM | 85.6 µM | 24.4 µM |  | 34.5 µM | > 100 µM | > 100 µM | 34.7 µM | 42.5 µM |  |  |  |  |  |  |  |  |  |  | 
COc1ccc(/C(Cl)=C(\C=O)c2cc(OC)c(OC)c(OC)c2)cc1OC | > 100 µM | > 100 µM | > 100 µM | > 100 µM | > 100 µM | 70.6 µM | > 100 µM | > 100 µM | > 100 µM | > 100 µM |  |  |  |  |  |  |  |  |  | 
C/C=C/CP(=O)(c1ccccc1)c1ccccc1 | > 100 µM |  | > 100 µM | > 100 µM | > 100 µM | > 100 µM | > 100 µM | > 100 µM | > 100 µM |  |  |  |  |  |  |  |  |  |  | 
c1cc2[se][se]c3c4cccc5[se][se]c(c(c1)c23)c54 | > 100 µM | > 100 µM | > 100 µM | > 100 µM | > 100 µM | > 100 µM | > 100 µM |  | > 100 µM |  |  |  |  |  |  |  |  |  |  | 
CCC[CH2][Sn]([CH2]CCC)([O]C(=O)c1cccc(F)c1F)[O][Sn]([CH2]CCC)([CH2]CCC)[O]C(=O)c1cccc(F)c1F | 2.1 µM | 0.399 µM | 0.239 µM | 0.25 µM | 1.51 µM | 0.851 µM | 0.562 µM | 0.797 µM | 1.72 µM | 1.86 µM | 0.59 µM | 0.727 µM | 0.13 µM | 0.103 µM | 0.111 µM | 0.301 µM | 0.317 µM | 0.206 µM | 0.243 µM | 0.506 µM
CC(=O)[CH-]C(C)=O.CC(=O)[CH-]C(C)=O.CC(=O)[CH-]C(C)=O.[Cl-].[Hf+4] | > 100 µM | > 100 µM | > 100 µM | > 100 µM | > 100 µM | > 100 µM | > 100 µM | > 100 µM | > 100 µM |  |  | > 100 µM | > 100 µM | > 100 µM | > 100 µM | > 100 µM | > 100 µM | > 100 µM | > 100 µM | > 100 µM
O=C(Nc1ccc(N=Nc2ccccc2)cc1)Sc1ccccc1C(=O)O | > 100 µM |  | > 100 µM | > 100 µM | > 100 µM | > 100 µM | > 100 µM | > 100 µM | > 100 µM |  |  |  |  |  |  |  |  |  |  | 
Cc1ccc(C2=NN(C)COC2C(F)(F)F)cc1 (stereo unspecified) | > 100 µM | > 100 µM | > 100 µM |  | > 100 µM | > 100 µM |  | > 100 µM | > 100 µM |  |  |  |  |  |  |  |  |  |  | 
COc1ccc(C(=O)O)c2c(=O)c3ccccc3[nH]c12 | > 100 µM | > 100 µM | > 100 µM | > 100 µM | > 100 µM | > 100 µM | > 100 µM | > 100 µM | > 100 µM |  |  |  |  |  |  |  |  |  |  | 
CC1CC(C)C(=O)C(C(=O)CC2CC(=O)NC2=O)C1 (stereo unspecified) | > 100 µM | > 100 µM | > 100 µM | > 100 µM | > 100 µM | > 100 µM | > 100 µM |  | > 100 µM |  |  |  |  |  |  |  |  |  |  | 
O=C(O/N=C1/CCC/C1=C\c1ccccc1)c1ccccc1 | > 100 µM | > 100 µM | > 100 µM | > 100 µM | > 100 µM | > 100 µM | > 100 µM | > 100 µM |  |  |  |  |  |  |  |  |  |  |  | 
N#Cc1c(C(N)=O)ncn1Cc1ccccc1 | > 100 µM | > 100 µM | > 100 µM | > 100 µM | > 100 µM | > 100 µM | > 100 µM | > 100 µM | > 100 µM |  |  |  |  |  |  |  |  |  |  | 
O=C(CC1(O)C(=O)Nc2ccccc21)c1ccc(O)cc1O (stereo unspecified) | > 100 µM | > 100 µM | > 100 µM | > 100 µM | > 100 µM | > 100 µM | > 100 µM | > 100 µM | > 100 µM |  |  |  |  |  |  |  |  |  |  | 
Cn1cc(C(=O)/C(Cl)=C(\Cl)C(=O)O)c2ccccc21 | > 100 µM |  | > 100 µM |  | > 100 µM | > 100 µM | > 100 µM | > 100 µM | > 100 µM |  |  |  |  |  |  |  |  |  |  | 
COc1cc(N)ccc1Nc1c2ccccc2nc2ccccc12 |  | 23 µM | 13.5 µM | 35.4 µM |  | 10.2 µM | 30.2 µM | 12 µM | 22.8 µM | 29.6 µM | 10.6 µM |  | 4.59 µM | 3.55 µM | 5.27 µM |  | 2.35 µM | 14.6 µM | 2.86 µM | 5.33 µM
CC1(C)OC(=O)C=C(O)O1.CC1(C)OC(=O)C=C(O)O1.CCO.Oc1ccc2c(c1)CCC2.[Ti] | > 100 µM |  | > 100 µM | > 100 µM | > 100 µM | > 100 µM | > 100 µM | > 100 µM | > 100 µM |  |  | > 100 µM |  | > 100 µM | > 100 µM | > 100 µM | > 100 µM | > 100 µM | > 100 µM | > 100 µM
